The values below come from US20240299385A1 (ReWind Therapeutics NV, priority 2021, published 2024).

For the assay, the target named is T1, human GPR17 receptor (Homo sapiens, UniProt Q13304).
T1 construct: host or cells: HEK-293
The experiment in a line: Calcium mobilization functional assay (Fluo-8, FLIPR TETRA) in HEK-293 hGPR17 (Gα-q assay). In kind it is cell-based. The note with it: antagonism of MDL29,951 (~EC80) induced Ca2+ signal; cell line (HEK-293 hGPR17 or HEK-293 Suchi5 hGPR17) not given. On the procedure: HEK-293 cells stably expressing the human GPR17 receptor (HEK-293 hGPR17) developed by Axxam (Bresso, Milan, Italy) were cultured at 37° C. in a humidified atmosphere of 5% CO2. Cells were grown in EMEM supplemented with FBS (10%), Penicillin/Streptomycin (1%), Ultraglutamine I (2 mM), puromycin (0.6 μg/mL), G418 (0.4 mg/mL), zeocin (50 μg/mL). This cell line was used to test the compound antagonistic activity by monitoring the Gα-q based signaling. Signaling via Gα-q leads to mobilization of calcium from internal stores. Elevated intracellular calcium levels can then be measured with calcium-sensitive fluorescent dyes (e.g., Fluo 8-No Wash Dye).
GPR17 activation leads to both an increase in intracellular calcium (via Gα-q) and a decrease in cAMP levels (via Gα-i), implicating that both of these pathways play a role for in vivo function.
Experiments were performed using the below cell lines, as described in part 1: • HEK-293 hGPR17 (used to study the compounds acting via Gα-q pathway) • HEK-293 Suchi5 hGPR17 (used to study the compounds acting via Gα-i pathway, where the Gα-i signaling is switched to a Gα-q signaling thanks to the Gα-i/q chimera Suchi5)
GPR17 activation was able to induce an endoplasmic reticulum calcium (Ca^2+) store release in cytosol which could be measured using the fluorescent Ca^2+ sensitive dye Fluo-8 No Wash Dye as readout.
HEK-293 hGPR17 and HEK-293 Suchi5 hGPR17 were seeded at a density of 15,000 cells/well into poly-D-lysine coated black 384-well plates with clear bottom in complete medium. Cells were incubated overnight at 37° C. in a humidified atmosphere of 5% CO2. Twenty-four hours after seeding, the culture medium was carefully removed manually and the cells were loaded for 60 minutes at room temperature with the Ca^2+ sensitive Fluo-8 No Wash Dye, according to manufacturer's instructions. Cells were then assayed using a fluorometric imaging plate reader (FLIPR^TETRA). Fluorescence (excitation: 470-495 nm; emission: 515-575 nm) was recorded during the experiment. […] After twenty minutes, a second injection of MDL29,951 at ˜EC80 (500 nM for HEK-293 hGPR17 and 2 nM for HEK-293 Suchi5 hGPR17) in assay buffer was performed at the FLIPR^TETRA and the signal of the emitted fluorescence was recorded for additional 2 minutes. All the compound injections and incubations were performed in duplicate. For data quality and data analysis the Screener® 16.0.6 (Genedata) software was used.

T1 sequence (Q13304 whole entry): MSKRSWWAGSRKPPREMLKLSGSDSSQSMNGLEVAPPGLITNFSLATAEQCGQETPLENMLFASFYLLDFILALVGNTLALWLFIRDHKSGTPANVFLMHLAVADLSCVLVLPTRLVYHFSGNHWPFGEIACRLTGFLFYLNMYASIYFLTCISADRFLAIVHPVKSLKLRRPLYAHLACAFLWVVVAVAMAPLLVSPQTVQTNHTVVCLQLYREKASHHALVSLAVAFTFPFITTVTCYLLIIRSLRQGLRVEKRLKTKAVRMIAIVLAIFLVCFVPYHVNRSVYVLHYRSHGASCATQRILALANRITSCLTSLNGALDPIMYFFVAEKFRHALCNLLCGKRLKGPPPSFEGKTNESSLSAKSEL

With `Cc1[nH]cc(S(=O)(=O)Nc2ccc(C#N)cc2F)c1Cc1ccccc1` [Cpd 067, 4-benzyl-N-(4-cyano-2-fluorophenyl)-5-methyl-1H-pyrrole-3-sulfonamide], the IC50 lay within 5 to 50 µM.

In the case of `O=S(=O)(Nc1ncc(Cl)cc1F)c1c[nH]c(-c2ccccc2)c1` [Cpd 068, N-(5-chloro-3-fluoro-2-pyridyl)-5-phenyl-1H-pyrrole-3-sulfonamide], the IC50 was less than 0.5 µM.

`O=S(=O)(Nc1cccc2c1OCO2)c1c[nH]c(-c2ccccc2)c1` [Cpd 069, N-(1,3-benzodioxol-4-yl)-5-phenyl-1H-pyrrole-3-sulfonamide]: the IC50 was in the range of 0.5 to 5 µM.

In the case of `Cc1cc(F)c(NS(=O)(=O)c2c[nH]c(-c3ccccc3)c2)cc1F` [Cpd 070, N-(2,5-difluoro-4-methyl-phenyl)-5-phenyl-1H-pyrrole-3-sulfonamide], the IC50 was less than 0.5 µM.

With `O=S(=O)(Nc1cc(F)c(C(F)(F)F)cc1F)c1c[nH]c(-c2ccccc2)c1` [Cpd 071, N-[2,5-difluoro-4-(trifluoromethyl)phenyl]-5-phenyl-1H-pyrrole-3-sulfonamide], the IC50 was less than 0.5 µM.

Take `N#Cc1ccc(NS(=O)(=O)c2c[nH]c(-c3ccccc3F)c2)cc1F` [Cpd 072, N-(4-cyano-3-fluoro-phenyl)-5-(2-fluorophenyl)-1H-pyrrole-3-sulfonamide]: the IC50 was less than 0.5 µM.

Regarding `O=S(=O)(Nc1cc(F)c(C(F)(F)F)cc1F)c1c[nH]c(-c2ccccc2F)c1` [Cpd 073, N-[2,5-difluoro-4-(trifluoromethyl)phenyl]-5-(2-fluorophenyl)-1H-pyrrole-3-sulfonamide], the IC50 is less than 0.5 µM.

Regarding `N#Cc1cc(F)c(NS(=O)(=O)c2c[nH]c(-c3ccccc3F)c2)cc1F` [Cpd 074, N-(4-cyano-2,5-difluoro-phenyl)-5-(2-fluorophenyl)-1H-pyrrole-3-sulfonamide], the IC50 was less than 0.5 µM.

Take `Cc1cc(F)c(NS(=O)(=O)c2c[nH]c(-c3ccccc3F)c2)cc1F` [Cpd 075, N-(2,5-difluoro-4-methyl-phenyl)-5-(2-fluorophenyl)-1H-pyrrole-3-sulfonamide]: the IC50 is less than 0.5 µM.

Turning to `N#Cc1cc(F)c(NS(=O)(=O)c2c[nH]c(-c3ccccc3)c2F)cc1F` [Cpd 076, N-(4-cyano-2,5-difluoro-phenyl)-4-fluoro-5-phenyl-1H-pyrrole-3-sulfonamide], the IC50 is less than 0.5 µM.

As for `N#Cc1cc(F)c(NS(=O)(=O)c2cc(-c3ccccc3)[nH]c2F)cc1F` [Cpd 077, N-(4-cyano-2,5-difluoro-phenyl)-2-fluoro-5-phenyl-1H-pyrrole-3-sulfonamide], the IC50 is 0.5 to 5 µM.

On to `Cn1nccc1-c1cc(S(=O)(=O)Nc2ccc(C#N)cc2F)c[nH]1` [Cpd 078, N-(4-cyano-2-fluoro-phenyl)-5-(2-methylpyrazol-3-yl)-1H-pyrrole-3-sulfonamide], for which the IC50 lay within 5 to 50 µM.

For the compound `N#Cc1ccc(NS(=O)(=O)c2c[nH]c(-c3ccccc3C(F)(F)F)c2)c(F)c1` [Cpd 079, N-(4-cyano-2-fluoro-phenyl)-5-[2-(trifluoromethyl)phenyl]-1H-pyrrole-3-sulfonamide], the 50% inhibitory concentration (IC50) lay within 0.5 to 5 µM.

As to `COCc1ccccc1-c1cc(S(=O)(=O)Nc2ccc(C#N)cc2F)c[nH]1` [Cpd 080, N-(4-cyano-2-fluoro-phenyl)-5-[2-(methoxymethyl)phenyl]-1H-pyrrole-3-sulfonamide], the IC50 lay within 0.5 to 5 µM.

For `Cn1ccc(-c2cc(S(=O)(=O)Nc3ccc(C#N)cc3F)c[nH]2)n1` [Cpd 081, N-(4-cyano-2-fluoro-phenyl)-5-(1-methylpyrazol-3-yl)-1H-pyrrole-3-sulfonamide], the IC50 lay within 0.5 to 5 µM.

Take `Cc1cccc(F)c1-c1cc(S(=O)(=O)Nc2ccc(C#N)cc2F)c[nH]1` [Cpd 082, N-(4-cyano-2-fluoro-phenyl)-5-(2-fluoro-6-methyl-phenyl)-1H-pyrrole-3-sulfonamide]: the IC50 was less than 0.5 µM.

With `COc1cccc(F)c1-c1cc(S(=O)(=O)Nc2ccc(C#N)cc2F)c[nH]1` [Cpd 083, N-(4-cyano-2-fluoro-phenyl)-5-(2-fluoro-6-methoxy-phenyl)-1H-pyrrole-3-sulfonamide], the IC50 is less than 0.5 µM.

`COc1ccc(F)c(-c2cc(S(=O)(=O)Nc3ccc(C#N)cc3F)c[nH]2)c1` [Cpd 084, N-(4-cyano-2-fluoro-phenyl)-5-(2-fluoro-5-methoxy-phenyl)-1H-pyrrole-3-sulfonamide]: the IC50 was less than 0.5 µM.

Consider `Cc1cccc(C)c1-c1cc(S(=O)(=O)Nc2ccc(C#N)cc2F)c[nH]1` [Cpd 085, N-(4-cyano-2-fluoro-phenyl)-5-(2,6-dimethylphenyl)-1H-pyrrole-3-sulfonamide], for which the 50% inhibitory concentration (IC50) lay within 0.5 to 5 µM.

For the compound `COc1ccc(-c2cc(S(=O)(=O)Nc3ccc(C#N)cc3F)c[nH]2)c(F)c1` [Cpd 086, N-(4-cyano-2-fluoro-phenyl)-5-(2-fluoro-4-methoxy-phenyl)-1H-pyrrole-3-sulfonamide], the concentration for half-maximal inhibition (IC50) lay in the range of 0.5 to 5 µM.

In the case of `COc1cccc(-c2cc(S(=O)(=O)Nc3ccc(C#N)cc3F)c[nH]2)c1F` [Cpd 087, N-(4-cyano-2-fluoro-phenyl)-5-(2-fluoro-3-methoxy-phenyl)-1H-pyrrole-3-sulfonamide], the IC50 lay in the range of 0.5 to 5 µM.

With `N#Cc1ccc(NS(=O)(=O)c2c[nH]c(-c3cc(F)c(F)cc3F)c2)c(F)c1` [Cpd 088, N-(4-cyano-2-fluoro-phenyl)-5-(2,4,5-trifluorophenyl)-1H-pyrrole-3-sulfonamide], the IC50 is less than 0.5 µM.

For the compound `COc1nccc(F)c1-c1cc(S(=O)(=O)Nc2ccc(C#N)cc2F)c[nH]1` [Cpd 089, N-(4-cyano-2-fluoro-phenyl)-5-(4-fluoro-2-methoxy-3-pyridyl)-1H-pyrrole-3-sulfonamide], the IC50 is less than 0.5 µM.

For the compound `N#Cc1ccc(NS(=O)(=O)c2c[nH]c(-c3ncccc3F)c2)c(F)c1` [Cpd 090, N-(4-cyano-2-fluorophenyl)-5-(3-fluoropyridin-2-yl)-1H-pyrrole-3-sulfonamide], the 50% inhibitory concentration (IC50) was less than 0.5 µM.

For the compound `N#Cc1ccc(NS(=O)(=O)c2c[nH]c(-c3c(F)cccc3F)c2)c(F)c1` [Cpd 091, N-(4-cyano-2-fluoro-phenyl)-5-(2,6-difluorophenyl)-1H-pyrrole-3-sulfonamide], the IC50 is less than 0.5 µM.

For the compound `N#Cc1ccc(NS(=O)(=O)c2c[nH]c(-c3ccccc3C(F)F)c2)c(F)c1` [Cpd 093, N-(4-cyano-2-fluoro-phenyl)-5-[2-(difluoromethyl)phenyl]-1H-pyrrole-3-sulfonamide], the IC50 lay in the range of 0.5 to 5 µM.

As to `N#Cc1ccc(NS(=O)(=O)c2c[nH]c(-c3ncccn3)c2)c(F)c1` [Cpd 094, N-(4-cyano-2-fluorophenyl)-5-(pyrimidin-2-yl)-1H-pyrrole-3-sulfonamide], the IC50 is 5 to 50 µM.

Regarding `COc1cccc(OC)c1-c1cc(S(=O)(=O)Nc2ccc(C#N)cc2F)c[nH]1` [Cpd 095, N-(4-cyano-2-fluoro-phenyl)-5-(2,6-dimethoxyphenyl)-1H-pyrrole-3-sulfonamide], the IC50 fell in the range of 0.5 to 5 µM.

With `N#Cc1ccc(NS(=O)(=O)c2c[nH]c(-c3ccc(C#N)cc3F)c2)c(F)c1` [Cpd 096, N,5-bis(4-cyano-2-fluoro-phenyl)-1H-pyrrole-3-sulfonamide], the IC50 was in the range of 0.5 to 5 µM.

For the compound `N#Cc1ccc(NS(=O)(=O)c2c[nH]c(-c3cc(F)cc(F)c3F)c2)c(F)c1` [Cpd 097, N-(4-cyano-2-fluoro-phenyl)-5-(2,3,5-trifluorophenyl)-1H-pyrrole-3-sulfonamide], the IC50 was in the range of 0.5 to 5 µM.

On to `N#Cc1ccc(NS(=O)(=O)c2c[nH]c(C3CCC3)c2)c(F)c1` [Cpd 098, N-(4-cyano-2-fluorophenyl)-5-cyclobutyl-1H-pyrrole-3-sulfonamide], for which the IC50 lay within 0.5 to 5 µM.

Take `O=S(=O)(Nc1ccc(C(F)(F)F)nc1)c1c[nH]c(-c2ccccc2)c1` [Cpd 099, 5-phenyl-N-[6-(trifluoromethyl)-3-pyridyl]-1H-pyrrole-3-sulfonamide]: the concentration for half-maximal inhibition (IC50) was in the range of 0.5 to 5 µM.

For the compound `Cc1ncccc1NS(=O)(=O)c1c[nH]c(-c2ccccc2)c1` [Cpd 100, N-(2-methyl-3-pyridyl)-5-phenyl-1H-pyrrole-3-sulfonamide], the IC50 is 0.5 to 5 µM.

`Cc1ccc(NS(=O)(=O)c2c[nH]c(-c3ccccc3)c2)c(C)n1` [Cpd 101, N-(2,6-dimethyl-3-pyridyl)-5-phenyl-1H-pyrrole-3-sulfonamide]: the IC50 lay within 0.5 to 5 µM.

Regarding `N#Cc1ccc(NS(=O)(=O)c2c[nH]c(-c3cccs3)c2)c(F)c1` [Cpd 102, N-(4-cyano-2-fluoro-phenyl)-5-(2-thienyl)-1H-pyrrole-3-sulfonamide], the IC50 is less than 0.5 µM.
